What is called Papp A→B is how fast a substance crosses the layer from the apical side.

The nature of the first series: MDR1-MDCKII permeability assay Papp(AB). It counts as in vitro ADME. Particulars: dog, MDCK-MDR1, parent compounds, A to B, 60-minute incubation at 37° C., pH 7.4. Here is the method:
MDR1-MDCKII Permeability Assay Papp(AB)
MDR1-MDCKII cells (obtained from Piet Borst at the Netherlands Cancer Institute) were seeded onto […] (PET) in 96-well BD insert systems at 2.5×10^5 cells/mL until to 4-7 days for confluent cell monolayer formation.
Test compounds were diluted with the transport buffer (HBSS with 10 mM HEPES, added 1% BSA, pH 7.4) from DMSO stock solution to a concentration of 0.5 μM (DMSO: 0.4%) and applied to the apical or basolateral side of the cell monolayer. Permeation of the test compounds from A to B direction or B to A direction was determined in triplicate over a 60-minute incubation at 37° C. and 5% CO2 with a relative humidity of 95%. In addition, the efflux ratio of each compound was also determined. Test and reference compounds were quantified by LC/MS/MS analysis based on the peak area ratio of analyte/IS.
Reference compounds: Fenoterol (conc: 2 μM) was used as low permeability marker and Propranolol (conc: 2 μM) was used as high permeability marker in A to B Permeability, furthermore was bi-directional permeability of a P-glycoprotein substrate (digoxin) included.
The apparent permeability coefficient Papp (cm/s) was calculated using the equation: Papp=(dCr/dt)×Vr/(A×C0) (1) Where dCr/dt is the cumulative concentration of compound in the receiver chamber as a function of time (μM/s); Vr is the solution volume in the receiver chamber (0.05 mL on the apical side; 0.25 mL on the basolateral side); A is the surface area for the transport, i.e. 0.0804 cm^2 for the area of the monolayer; C0 is the initial concentration in the donor chamber (μM).
The efflux was calculated using the equation: Efflux ratio=Papp(BA)/Papp(AB) (2)
The mass balance (Recovery) was calculated. The mass balance is defined as: the sum of the compound recovered from the acceptor chamber and the compound remaining in the donor chamber at the end of the experiment, divided by the initial donor amount. The mass balance should be as high as possible. Criterion: Recovery <50% is insufficient.
To evaluate the integrity of the cell monolayer, Lucifer Yellow permeability was measured in one direction (A to B). The percentage of Lucifer Yellow was calculated in control wells as an estimation of the overall cell membrane integrity. The wells are considered fully acceptable if % Lucifer Yellow is less than 2%.
The experiments for the prodrugs were the same as for the parent compounds exemplified in Table 3a.
On to `Cc1cnc2cc(C(=O)NC[C@@H](N)C(=O)O)sc2c1C` [Compound 1l, (R)-2-amino-3-(6,7-dimethylthieno[3,2-b]pyridine-2-carboxamido)propanoic acid], for which the Papp A→B at 60 min, 0.5 µM came to 0.47 ×10⁻⁶ cm/s.

The same series, now with this note: dog, MDCK-MDR1, prodrug compounds, A to B, 60-minute incubation at 37° C., pH 7.4.
`COC(=O)[C@H](N)CNC(=O)c1cc2ncc(C)c(C)c2s1` [Compound 2y, Methyl (R)-2-amino-3-(6,7-dimethylthieno[3,2-b]pyridine-2-carboxamido)propanoate]: the Papp A→B at 60 min, 0.5 µM was determined as 7.08 ×10⁻⁶ cm/s.
`COC(=O)[C@H](N)CNC(=O)c1cc2nccc(C3CC3)c2s1` [Compound 2b, Methyl (R)-2-amino-3-(7-cyclopropylthieno[3,2-b]pyridine-2-carboxamido) propanoate]: the Papp A→B at 60 min, 0.5 µM was determined as 9.25 ×10⁻⁶ cm/s.
Take `COC(=O)[C@H](N)CNC(=O)c1cc2ncc(F)c(C)c2s1` [Compound 2x, Methyl (R)-2-amino-3-(6-fluoro-7-methyl-thieno[3,2-b]pyridine-2-carboxamido)propanoate]: the Papp A→B at 60 min, 0.5 µM is 15.5 ×10⁻⁶ cm/s.
With `COC(=O)[C@H](N)CNC(=O)c1cc2nccc(CF)c2s1` [Compound 2w, Methyl (R)-2-amino-3-(7-(fluoromethyl)thieno[3,2-b]pyridine-2-carboxamido)propanoate], the Papp A→B at 60 min, 0.5 µM worked out at 4.19 ×10⁻⁶ cm/s.
Same read-out and setting: the value for `Cc1ccnc2cc(C(=O)NC[C@@H](N)C(=O)OCC3CC3)sc12` [Compound 2j, Cyclopropylmethyl (R)-2-amino-3-(7-methylthieno[3,2-b]pyridine-2-carboxamido)propanoate] was 11.9 ×10⁻⁶ cm/s; that for `Cc1ccnc2cc(C(=O)NC[C@@H](N)C(=O)OCc3ccccc3)sc12` [Compound 2m, Benzyl (R)-2-amino-3-(7-methylthieno[3,2-b]pyridine-2-carboxamido)propanoate] was 8.68 ×10⁻⁶ cm/s; that for `COC(=O)[C@H](N)CNC(=O)c1cc2nccc(CO)c2s1` [Compound 2v, Methyl (R)-2-amino-3-(7-(hydroxymethyl)thieno[3,2-b]pyridine-2-carboxamido) propanoate] was 1.16 ×10⁻⁶ cm/s.
In the case of `Cc1ccnc2cc(C(=O)NC[C@@H](N)C(=O)OCCC(C)C)sc12` [Compound 2l, Isopentyl (R)-2-amino-3-(7-methylthieno[3,2-b]pyridine-2-carboxamido)propanoate], the Papp A→B at 60 min, 0.5 µM amounted to 6.5 ×10⁻⁶ cm/s.
Same read-out and setting: the same measure for `Cc1ccnc2cc(C(=O)NC[C@@H](N)C(=O)OC3CC3)sc12` [Compound 2g, Cyclopropyl (R)-2-amino-3-(7-methylthieno[3,2-b]pyridine-2-carboxamido)propanoate]: 7.11 ×10⁻⁶ cm/s; for `Cc1ccnc2cc(C(=O)NC[C@@H](N)C(=O)OCC(=O)N3CCCC3)sc12` [Compound 2p, 2-Oxo-2-(pyrrolidin-1-yl)ethyl (R)-2-amino-3-(7-methylthieno[3,2-b]pyridine-2-carboxamido)propanoate]: 0.81 ×10⁻⁶ cm/s.
On to `CCc1ccccc1-c1ccnc2cc(C(=O)NC[C@@H](N)C(=O)OC)sc12` [Compound 2q, Methyl (R)-2-amino-3-(7-(2-ethylphenyl)thieno[3,2-b]pyridine-2-carboxamido)propanoate], for which the Papp A→B at 60 min, 0.5 µM was 1.97 ×10⁻⁶ cm/s.
Regarding `COC(=O)[C@H](N)CNC(=O)c1cc2nccc(C(F)F)c2s1` [Compound 2a, Methyl (R)-2-amino-3-(7-(difluoromethyl)thieno[3,2-b]pyridine-2-carboxamido)propanoate], the Papp A→B at 60 min, 0.5 µM was found to be 8.36 ×10⁻⁶ cm/s.
Consider `CCOC(=O)[C@H](N)CNC(=O)c1cc2nccc(C)c2s1` [Compound 2d, Ethyl (R)-2-amino-3-(7-methylthieno[3,2-b]pyridine-2-carboxamido)propanoate], for which the Papp A→B at 60 min, 0.5 µM was 15.2 ×10⁻⁶ cm/s.
Same read-out and setting: the value for `Cc1ccnc2cc(C(=O)NC[C@@H](N)C(=O)OCC(C)C)sc12` [Compound 2i, Isobutyl (R)-2-amino-3-(7-methylthieno[3,2-b]pyridine-2-carboxamido)propanoate] was 8.19 ×10⁻⁶ cm/s.
